# Reference: PMC11268729 (Journal of hepatology, 2023)
# “Also recorded” adds a separate entry of the source.
# Assays:
# [1] = tested on: PaDLOCs; assay: PaDLOC confocal imaging; format: cell-based, human; settings: for UMAP morphological clustering: PaDLOCs, CellProfiler cell-level features; for morphological deviation: monotherapy 500 nM
# [2] = tested on: PaDLOCs; assay: Metabolic turnover of CYP substrates in PaDLOCs; settings: PaDLOCs vs plate-cultured intact HLOs; slightly lower rates than PHHs
# [3] = tested on: PHH PaDLOCs; assay: PHH liver-chip ALT/AST release and albumin production; format: cell-based, human; settings: PHH on chip; APAP and FIAU
# [4] = tested on: PaDLOCs; assay: PaDLOC; format: cell-based, human; settings: for albumin production: across 7 days; for ALT or AST release: monotherapy 500 nM
# [5] = tested on: PaDLOCs; assay: scRNA-seq differential expression in hepatocytes of drug-treated PaDLOCs; format: cell-based, human; settings: fialuridine 10 μM, tenofovir 500 nM; for KCNQ10T1 expression / RPS10 expression: compared to control; for DGAT1 expression: tenofovir-inarigivir 250 + 250 nM
# [6] = tested on: 72.3-derived HLOs; assay: Morphological cell profiling; format: cell-based, human; settings: for phenotypic cluster (UMAP/HDBScan): cells treated at respective IC50, 72.3-derived HLOs
# [7] = tested on: dispersed HLOs; assay: Dispersed HLOs in 384-well plates, cell viability counts by high-content imaging; format: cell-based, human; settings: for cytotoxicity: monotherapies up to concentration of 100 μM, 120 hrs
# [8] = in vivo; cited from earlier work
# [9] = tested on: patients; settings: monotherapy, two clinical trials for HBV; cited from earlier work
# [10] = single agents 500 nM, combination 250 + 250 nM
structure (smiles),measurement,setting,value
"CC(=O)Nc1ccc(O)cc1 [APAP, acetaminophen]",UMAP morphological clustering,[1],unique cluster
same,metabolic turnover rate,[2],increased rates compared to plate-cultured intact HLOs
same,ALT/AST release and reduced albumin production,[3],not significant
same,albumin production,"[4]; APAP 100 μM, FIAU 10 μM",diminished
"O=c1[nH]c(=O)n([C@@H]2O[C@H](CO)[C@@H](O)[C@@H]2F)cc1I [FIAU, fialuridine]",KCNQ10T1 expression,[5],overexpression
same,RPS10 expression,[5],suppressed expression
same,GSTP1 expression,[5],decreased expression
same,DGAT1 expression,[5],downregulated
same,"confocal phenotype (CellMask, lipid droplets)","[1]; APAP 100 μM, FIAU 10 μM, day 7 of treatment",high lipid content and a reduction of CellMask staining
same,multidimensional perturbation of cells,"[6]; sub-cytotoxic concentrations, Fig. S5 B-C",diminished mitochondrial mass and lipid accumulation
same,ALT/AST release and reduced albumin production,[3],not significant
same,albumin production,"[4]; APAP 100 μM, FIAU 10 μM",diminished
Cc1ccnc2c1NC(=O)c1cccnc1N2C1CC1 [nevirapine],phenotypic cluster (UMAP/HDBScan),[6],Cluster γ
same,IC50 relative to reported Cmax in patients,"[7]; 72.3 derived HLOs, Cmax ref 53",over double that of reported Cmax
Nc1nc2nc[nH]c2c(=S)[nH]1 [thioguanine],phenotypic cluster (UMAP/HDBScan),[6],Cluster α
CO[C@H]1/C=C/O[C@@]2(C)Oc3c(C)c(O)c4c(O)c(c(/C=N/N5CCN(C)CC5)c(O)c4c3C2=O)NC(=O)/C(C)=C\C=C\[C@H](C)[C@H](O)[C@@H](C)[C@@H](O)[C@@H](C)[C@H](OC(C)=O)[C@@H]1C [rifampin],phenotypic cluster (UMAP/HDBScan),[6],Cluster γ
Oc1ncnc2[nH]ncc12 [allopurinol],phenotypic cluster (UMAP/HDBScan),[6],Cluster α; also recorded: Cluster γ
C[C@H](Cn1cnc2c(N)ncnc21)OCP(=O)(O)O [tenofovir],KCNQ10T1 expression,[5],overexpression
same,RPS10 expression,[5],suppressed expression
same,GSTP1 expression,[5],decreased expression
same,DGAT1 expression,[5],downregulated
same,UMAP morphological clustering,[1],clustered with DMSO control
same,morphological deviation,[1],no morphological deviation from DMSO-treated control
same,cytotoxicity,[7],negligible cytotoxicity
same,Cmax,[8],~500 nM
same,ALT or AST release,[4],did not increase ALT or AST release
same,albumin production,[4]; [10],no effect was observed
O=P1(N(CCCl)CCCl)NCCCO1 (stereo not shown) [cyclophosphamide],metabolic turnover rate,[2],increased rates compared to plate-cultured intact HLOs
CO[C@@H]1[C@H](OP(=O)(OC[C@H]2O[C@@H](n3cnc4c(N)ncnc43)C[C@@H]2O)SCOC(=O)OC(C)C)[C@@H](CO)O[C@H]1n1ccc(=O)[nH]c1=O (stereo partly shown) [inarigivir soproxil],UMAP morphological clustering,[1],clustered with DMSO control
same,morphological deviation,[1],no morphological deviation from DMSO-treated control
same,cytotoxicity,[7],negligible cytotoxicity
same,ALT or AST release,[4],did not increase ALT or AST release
same,albumin production,[4]; [10],no effect was observed
same,toxicity in clinical trials,[9],no clear signs of toxicity
